Data on five compounds can be found in patent US20040049009A1, “Methods for improving the antagonistic/agonistic properties of peptidic antagonists/agonists of the corticotropin-releasing factor receptor (crfr)” (priority 2000, published 2004).

Data set [1] in a line: Isoelectric focusing (IEF). The class given is physicochemical. The settings on record: determined by isoelectric focussing.
Procedure: Isoelectric focusing (IEF) was carried out with a BioRad IEF cell system using Biorad IEF strips (11 cm, pH range from 3 to 10). The system was cooled to 20° C. Calibration was performed with 80 μg of Sigma IEF mix 3.6-9.3 dissolved in 200 μl water containing 0.2% Bio-Lyte® 3/10 and 0.1% NP40. Twenty five μg of each peptide was dissolved in 200 μl water containing 0.2% Bio-Lyte® 3/10,0.1% NP40, and 10 mM DTT.IEF gels were placed in the chamber containing the peptide solution. The IEF gels were initially rehydrated for 12 hours at 50 V. Focusing of the peptides was achieved by application of a linear voltage gradient starting at 250 V and reaching 8000 V in 2.5 hours. The gels were then exposed to 8000 V for 4.5 hours. Subsequently, the IEF gels were stained in the BioRad IEF gel staining solution and destained in a mixture of 10% acetic acid, 40% methanol, and 50% water.
A further data set has as its target T1, mCRFR2β (Mus musculus, UniProt Q60748).
T1 construct: expressed in transfected cells
Kind of data set: Intracellular cAMP accumulation in mCRFR2β-HEK 293 cells. The class given is cell-based. The conditions noted are these: for Rel. intrinsic activity mCRFR2β: cAMP after 1 μM antagonist relative to Svg stimulation, 95% CI in parentheses; for Rel. potency of antagonist mCRFR2β: inhibition of cAMP accumulation after 1 nM Svg. For orientation: Changes in cAMP serve as a functional read-out for many G protein-coupled receptors.

In data set [2] the target is T2, rCRFR1 (Rattus norvegicus, UniProt P35353).
T2 sequence (P35353 24-415): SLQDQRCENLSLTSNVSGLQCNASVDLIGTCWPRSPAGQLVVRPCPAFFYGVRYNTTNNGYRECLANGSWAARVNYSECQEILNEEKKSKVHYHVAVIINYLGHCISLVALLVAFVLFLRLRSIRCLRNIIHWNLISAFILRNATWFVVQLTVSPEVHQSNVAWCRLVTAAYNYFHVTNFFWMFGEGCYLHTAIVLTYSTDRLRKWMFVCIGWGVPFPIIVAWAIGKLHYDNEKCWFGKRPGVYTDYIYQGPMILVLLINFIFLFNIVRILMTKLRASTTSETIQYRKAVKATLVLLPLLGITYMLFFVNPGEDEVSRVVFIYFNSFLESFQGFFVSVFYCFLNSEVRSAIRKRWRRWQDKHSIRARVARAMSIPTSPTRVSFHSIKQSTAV

Data set [3] has as its target T2, rCRFR1. In words: Competitive binding to rCRFR1, SPA on HEK-293 membrane fractions with [125I-Tyr0]h/rCRF. The settings on record: binding affinities CRFR1 vs CRFR2.
Procedure: (§1) The SPA assay for rCRFR1 and rCRFR2β was performed in 96-well microtiter plates. […] After 1 hour shaking 250 mg wheat germ agglutinin beads per well were added and the plates were counted in a microbeta scintillation counter (Wallac). cAMP accumulation was measured using the SPA based Biotrack assay (Amersham).
Binding of CRF-like peptides to rCRFBP was carried out with an SPA assay in nickel-chelate-coated 96-well microtiter plates (Flash Plate PLUS™, NEN), which bound rCRFBP tagged with a C-terminal His6 sequence (rCRFBP-His6). The scintillator beads carrying the Ni 2+ ions for binding of the His tag were located at the inner surface of the wells of this microtiterplate. […] The plates were sealed and incubated for four hours at room temperature. The radioactivities in the microtiterplates were counted in a Wallac 1450 Microbeta scintillation counter by detection of the light emitted from the scintillator beads. In both SPA systems the detection of the radioligand.8 depended on its proximity to the beads containing the scintillator. […] The major portion of counted radioactivity (>70%) represented specific binding that was because of radiolabeled ligand specifically bound to CRFBP or CRFR. […] Binding data were analyzed using the Prism computer program (GraphPad Software, San Diego).
Another data set relates to C57BL/6J mice. In words: Elevated plus-maze test, icv injection, oCRF-induced behavior. The class given is in vivo, mouse.

T1 sequence (Q60748 1-431 isoform Q60748-2): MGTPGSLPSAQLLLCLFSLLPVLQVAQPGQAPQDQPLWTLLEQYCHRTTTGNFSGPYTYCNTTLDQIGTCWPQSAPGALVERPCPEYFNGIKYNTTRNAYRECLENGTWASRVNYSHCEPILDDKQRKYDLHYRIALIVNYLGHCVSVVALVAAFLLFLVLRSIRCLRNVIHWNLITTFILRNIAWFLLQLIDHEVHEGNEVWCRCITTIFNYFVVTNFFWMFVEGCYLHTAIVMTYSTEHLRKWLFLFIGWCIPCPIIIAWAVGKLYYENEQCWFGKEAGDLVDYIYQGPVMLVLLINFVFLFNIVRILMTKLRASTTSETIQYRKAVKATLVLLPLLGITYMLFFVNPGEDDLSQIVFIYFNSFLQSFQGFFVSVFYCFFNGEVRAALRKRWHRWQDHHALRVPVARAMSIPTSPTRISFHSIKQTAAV
Procedure for C57BL/6J mice: The antagonists and agonists were injected icv 30 and 15 min, respectively, before exposure to the elevated plus-maze for 5 min.
Ten min later the animals received 90 ng oCRF, and after 30 min, their behavior was recorded in the elevated plus maze test.
Alternatively, the elevated plus-maze behavior of C57BL/6J mice cannulated in the lateral ventricles (Radulovic, J., Rühmann, A., Liepold, T & Spiess, J. (1999) J.Neurosci. 19, 5016-5025) was investigated 15 min after injection of ovine CRF (oCRF) in the elevated plus-maze test (Radulovic, J., Kammermeier, J. & Spiess, J. (1998) Behav.Brain Res. 95, 179-189.).Peptide concentrations were determined by amino acid analysis (Radulovic, J., Rühmann, A., Liepold, T. & Spiess, J. (1999) J.Neurosci. 19, 5016-5025). CRF antagonists in aCSF as vehicle or vehicle alone were injected 30 min prior to oCRF administration. The behavior of the mice was recorded by a video camera connected to a PC and analyzed by the software VideoMot 2 (Technical &Scientific Equipment). The time spent, distance crossed, and number of entries in the open arms, closed arms, and center were recorded. The cannular placement was confirmed for each mouse by histological examination of the brains after methylene blue injection (Radulovic, J., Rühmann, A., Liepold, T. & Spiess, J. (1999) J.Neurosci. 19, 5016-5025). The behavioral data were analyzed by t tests or ANOVA followed by post hoc Scheffe's test for multiple comparisons. Data are presented as mean±SEM. The shift of preference from the open to the closed arms is interpreted as an increase of anxiety-like behavior. Locomotor activity is determined with this assay by the distance traveled.
Procedure for mCRFR2β: as §1

`CC[C@H](C)[C@H](NC(=O)[C@@H](NC(=O)[C@H](CC(=O)O)NC(=O)[C@H](CC(C)C)NC(=O)[C@H](CC(C)C)NC(=O)[C@H](CC(C)C)NC(=O)[C@H](CCCNC(=N)N)NC(=O)[C@H](CC(N)=O)NC(=O)[C@H](CC(N)=O)NC(=O)[C@H](C)NC(=O)[C@H](C)NC(=O)[C@H](CCC(N)=O)NC(=O)[C@H](CCC(N)=O)NC(=O)[C@H](CCCCN)NC(=O)[C@H](CCC(=O)O)NC(=O)[C@H](CCCCN)NC(=O)[C@H](CCC(=O)O)NC(=O)[C@H](CCC(N)=O)NC(=O)[C@H](CCCCN)NC(=O)[C@H](CCC(=O)O)NC(=O)[C@@H](NC(=O)[C@H](CCC(=O)O)NC(=O)[C@@H](NC(=O)[C@H](CCSC)NC(=O)[C@H](CCCCN)NC(=O)[C@H](CCCNC(=N)N)NC(=O)[C@H](CC(C)C)NC(=O)[C@H](CC(C)C)NC(=O)[C@H](CCC(=O)O)NC(=O)[C@H](CC(C)C)NC(=O)[C@H](CO)NC(=O)[C@H](CC(C)C)NC(=O)[C@H](CC(=O)O)NC(=O)[C@@H](NC(=O)[C@H](CO)NC(=O)[C@@H](NC(=O)[C@@H]1CCCN1C(=O)[C@@H]1CCCN1C(=O)CNC(=O)[C@@H]1CCC(=O)N1)[C@@H](C)CC)[C@@H](C)CC)[C@@H](C)CC)[C@@H](C)CC)[C@@H](C)O)C(N)=O` [Svg, sauvagine] displayed an Isoelectric point in data set [1] of 5.1.

By Emax is commonly meant the greatest response seen or fitted, relative to the assay's reference. Take anti-sauvagine-30 [aSvg-30]: on mCRFR2β, the “Rel. intrinsic activity mCRFR2β” value is given as 1.0 (0.9-1.1) % and the “Rel. potency of antagonist mCRFR2β” value is reported as 99 (98-99) %. This compound also returned an Emax on rCRFR1 [2] of 6.5%.

For the compound h/rCRF, at rCRFR1 [3], the “selectivity favoring CRFR1 (over CRFR2), factor” value is recorded as 30.

For the compound oCRF, the “effect on oCRF-elicited anxious behavior in elevated plus maze (Example 9)” value in the data set on C57BL/6J mice (220 ng [E11]Ast icv, 10 min later 90 ng oCRF, threefold molar excess) is reported as “elicited anxious behavior”. Further, in the data set with C57BL/6J mice (icv 20 pmol (90 ng) oCRF), the “anxiety-like behavior (open arm visits, % time in open arms)” value is “enhanced” and the “locomotion (total distance crossed) in elevated plus-maze” value was “markedly decreased”. Besides, in the data set with C57BL/6J mice (icv 35 pmol (170 ng) oCRF), the “behavior effects at higher agonist dose” value is listed as “significantly enhanced”.

With α-helical CRF^9-41 [α-hel-CRF^9-41], on mCRFR2β, the “Rel. intrinsic activity mCRFR2β” value is listed as 1.4 (1.2-1.5) % and the “Rel. potency of antagonist mCRFR2β” value is listed as 97 (96-97) %. Further, the “change of oCRF-induced behavioral effects in plus-maze test” value with C57BL/6J mice (120 pmol antagonist icv before 35 pmol oCRF) was “no significant change”. This compound displayed a maximal effect (Emax) on rCRFR1 [2] of 19%.
